From patent US20200054660A1, “DNA M[…] FOR T-CELL IMMUNOTHERAPY” (priority 2016, published 2020)

System: virus-specific CD8 T cells
Design: species or system mice
Conditions: mouse, in vivo

## Nc1ncn([C@H]2C[C@H](O)[C@@H](CO)O2)c(=O)n1 [DAC, 5-aza-2′-deoxycytidine]
  Ki67+ virus-specific CD8 T cells: significant increase
  T cell expansion: did not observe an enhancement
  expansion of virus-specific T cells in spleen, lungs and liver: enhanced expansion
  quantity of gp33-specific CD8 T cells in the peripheral blood: striking increase
